The values below come from ChEMBL document CHEMBL1121558, “Studies on several 7-substituted N,N-dimethyltryptamines” (J Med Chem, 1980).

The species entered for experiment [1] is Rattus norvegicus. The experiment in a line: Effective dose was determined for the behavioral (interoceptive cues) activity of rats. It is filed as functional.
In experiment [2] the target is Serotonin (5-HT) receptor. The experiment is described as follows: Compound was evaluated for binding affinity towards 5-hydroxytryptamine receptor in isolated rat fundus preparation measured as pA2.

One may read the ED50 as the dose at which the effect has come halfway, by size or by number of responders. As for `COc1ccc2c(CCN(C)C)c[nH]c2c1`, the ED50 in experiment [1] is 0.4 mg/kg.
The term pA2 denotes the negative logarithm of the molar antagonist concentration that doubles the agonist concentration needed for the same response. Low values mean lower antagonist potency, high ones higher antagonist potency. Compound `Cc1cccc2c(CCN(C)C)c[nH]c12` had a pA2 in experiment [2] of 6.29.
Same read-out and setting: for `CN(C)CCc1c[nH]c2c(Br)cccc12` the value was 6.51.
Take `COc1cc(OC)c2[nH]cc(CCN(C)C)c2c1`: in experiment [1], the 50% effect level (ED50) was put at a dose of 3.38 mg/kg. This compound also came in with a pA2 in experiment [2] of 5.5.
For the compound `COc1ccc(OC)c(CC(C)N)c1` (stereo not given), in experiment [1], the ED50 came out at 0.59 mg/kg.
Take `COc1cc(C)c2[nH]cc(CCN(C)C)c2c1`: in experiment [1], it took a dose of 1.54 mg/kg to reach the 50% effect level (ED50). In experiment [2], this compound displayed a pA2 of 6.61.
In turn, `CCc1cccc2c(CCN(C)C)c[nH]c12` yielded a pA2 in experiment [2] of 6.31.
The same measure, in the same setting: for `COc1cc2c(CCN(C)C)c[nH]c2c(OC)c1OC` the value was 5.98.
